Reference: patent US20050002859A1, “COX-2-targeted imaging agents” (Vanderbilt University, priority 2003, published 2005)

How the values were obtained:
[1] = target: T1, COX-2 (Homo sapiens, UniProt P35354); details: cited from earlier work
T1 sequence (P35354 18-604): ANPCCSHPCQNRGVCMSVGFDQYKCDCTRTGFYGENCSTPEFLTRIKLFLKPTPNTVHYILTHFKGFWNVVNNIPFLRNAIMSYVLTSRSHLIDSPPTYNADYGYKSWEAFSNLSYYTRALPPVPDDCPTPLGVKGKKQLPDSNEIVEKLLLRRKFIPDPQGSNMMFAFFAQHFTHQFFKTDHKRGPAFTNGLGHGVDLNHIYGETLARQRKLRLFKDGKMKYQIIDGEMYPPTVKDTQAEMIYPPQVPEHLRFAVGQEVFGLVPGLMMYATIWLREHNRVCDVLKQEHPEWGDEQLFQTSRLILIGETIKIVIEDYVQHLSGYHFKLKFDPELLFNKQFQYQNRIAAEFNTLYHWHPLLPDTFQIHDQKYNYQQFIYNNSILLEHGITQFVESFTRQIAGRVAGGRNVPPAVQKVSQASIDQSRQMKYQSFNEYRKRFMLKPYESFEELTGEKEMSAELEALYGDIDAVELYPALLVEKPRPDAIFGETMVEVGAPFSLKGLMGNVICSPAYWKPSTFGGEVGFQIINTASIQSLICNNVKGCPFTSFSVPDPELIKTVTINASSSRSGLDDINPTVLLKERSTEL

[2] = test system: PGE2 in pouch exudate (COX-2 activity); details: 2 mg/kg dose; cited from earlier work
[3] = test system: rat carageenan footpad edema; test: Rat carageenan footpad edema model; type: in vivo; details: rat carageenan footpad model (Example 14); read-out: ED50
Procedure: The first is the rat carageenan footpad model. Maximal edema is obtained in this model 3 hours after carageenan injection.

[4] = test system: serum thromboxane B2 (COX-1 activity); details: 2 mg/kg dose; cited from earlier work

CSc1ccccc1OC(C)=O [o-(Acetoxyphenyl)methyl sulfide]
inhibitory potency and selectivity for COX-2 [1]: moderate

COc1ccc2c(c1)c(CC(=O)O)c(C)n2C(=O)c1ccc(Cl)cc1 [indomethacin]
reduction of PGE2 levels [2]: 100%
ED50 [3]: 2 mg/kg
reduction of TXB2 levels [4]: 90%
